pIC50: −log10 of the molar value.
Legend:
[1] = system: HT-29; assay: Growth inhibition of human HT-29 cells assessed as cell growth at 10 uM after 48 hrs by sulforhodamine B assay; format: functional; conditions: HT-29, 48 h, read-out: Activity
[2] = system: 786-0; assay: Growth inhibition of human 786-0 cells after 48 hrs by sulforhodamine B assay; format: functional; conditions: 786-0, 48 h
[3] = system: OVCAR-3; assay: Growth inhibition of human OVCAR3 cells assessed as cell growth at 10 uM after 48 hrs by sulforhodamine B assay; format: functional; conditions: OVCAR-3, 48 h, read-out: Activity
[4] = system: T47D; assay: Growth inhibition of human T47D cells after 48 hrs by sulforhodamine B assay; format: functional
[5] = system: SK-MEL-2; assay: Growth inhibition of human SK-MEL-2 cells assessed as cell growth at 10 uM after 48 hrs by sulforhodamine B assay; format: functional; conditions: SK-MEL-2, 48 h, read-out: Activity
[6] = system: NCI-H522; assay: Growth inhibition of human NCI-H522 cells assessed as cell growth at 10 uM after 48 hrs by sulforhodamine B assay; format: functional; conditions: NCI-H522, 48 h, read-out: Activity
[7] = system: COLO 205; assay: Growth inhibition of human COLO205 cells after 48 hrs by sulforhodamine B assay; format: functional; conditions: COLO 205, 48 h
[8] = system: NCI-H23; assay: Growth inhibition of human NCI-H23 cells assessed as cell growth at 10 uM after 48 hrs by sulforhodamine B assay; format: functional; conditions: NCI-H23, 48 h, read-out: Activity
[9] = system: SK-MEL-28; assay: Growth inhibition of human SK-MEL-28 cells after 48 hrs by sulforhodamine B assay; format: functional; conditions: SK-MEL-28, 48 h
[10] = system: OVCAR-8; assay: Growth inhibition of human OVCAR8 cells assessed as cell growth at 10 uM after 48 hrs by sulforhodamine B assay; format: functional; conditions: OVCAR-8, 48 h, read-out: Activity
[11] = system: HCT-15; assay: Growth inhibition of human HCT15 cells after 48 hrs by sulforhodamine B assay; format: functional; conditions: HCT-15, 48 h
[12] = system: SF-539; assay: Growth inhibition of human SF539 cells after 48 hrs by sulforhodamine B assay; format: functional; conditions: SF-539, 48 h
[13] = system: LOX IMVI; assay: Growth inhibition of human LOXIMVI cells after 48 hrs by sulforhodamine B assay; format: functional
[14] = system: HOP-62; assay: Growth inhibition of human HOP62 cells after 48 hrs by sulforhodamine B assay; format: functional; conditions: HOP-62, 48 h
[15] = system: DU-145; assay: Growth inhibition of human DU145 cells after 48 hrs by sulforhodamine B assay; format: functional; conditions: DU-145, 48 h
[16] = system: M14; assay: Growth inhibition of human M14 cells assessed as cell growth at 10 uM after 48 hrs by sulforhodamine B assay; format: functional; conditions: M14, 48 h, read-out: Activity
[17] = system: KM12; assay: Growth inhibition of human KM12 cells assessed as cell growth at 10 uM after 48 hrs by sulforhodamine B assay; format: functional; conditions: KM12, 48 h, read-out: Activity
[18] = system: HL-60(TB); assay: Growth inhibition of human HL-60(TB) cells after 48 hrs by sulforhodamine B assay; format: functional; conditions: HL-60, 48 h
[19] = system: PC-3; assay: Growth inhibition of human PC3 cells assessed as cell growth at 10 uM after 48 hrs by sulforhodamine B assay; format: functional; conditions: PC-3, 48 h, read-out: Activity
[20] = system: NCI-H522; assay: Growth inhibition of human NCI-H522 cells after 48 hrs by sulforhodamine B assay; format: functional; conditions: NCI-H522, 48 h
[21] = system: UO-31; assay: Growth inhibition of human UO31 cells assessed as cell growth at 10 uM after 48 hrs by sulforhodamine B assay; format: functional; conditions: UO-31, 48 h, read-out: Activity
[22] = system: BT-549; assay: Growth inhibition of human BT549 cells after 48 hrs by sulforhodamine B assay; format: functional; conditions: BT-549, 48 h
[23] = system: SW-620; assay: Growth inhibition of human SW620 cells assessed as cell growth at 10 uM after 48 hrs by sulforhodamine B assay; format: functional; conditions: SW-620, 48 h, read-out: Activity
[24] = system: K562; assay: Growth inhibition of human K562 cells after 48 hrs by sulforhodamine B assay; format: functional; conditions: K562, 48 h
[25] = system: MDA-MB-468; assay: Growth inhibition of human MDA-MB-468 cells assessed as cell growth at 10 uM after 48 hrs by sulforhodamine B assay; format: functional; conditions: MDA-MB-468, 48 h, read-out: Activity
[26] = system: CAKI-1; assay: Growth inhibition of human CAKI-1 cells after 48 hrs by sulforhodamine B assay; format: functional; conditions: CAKI-1, 48 h
[27] = system: MOLT-4; assay: Growth inhibition of human MOLT4 cells assessed as cell growth at 10 uM after 48 hrs by sulforhodamine B assay; format: functional; conditions: MOLT-4, 48 h, read-out: Activity
[28] = system: OVCAR-5; assay: Growth inhibition of human OVCAR5 cells assessed as cell growth at 10 uM after 48 hrs by sulforhodamine B assay; format: functional; conditions: OVCAR-5, 48 h, read-out: Activity
[29] = system: HCT-15; assay: Growth inhibition of human HCT15 cells assessed as cell growth at 10 uM after 48 hrs by sulforhodamine B assay; format: functional; conditions: HCT-15, 48 h, read-out: Activity
[30] = system: RPMI-8226; assay: Growth inhibition of human RPMI8226 cells assessed as cell growth at 10 uM after 48 hrs by sulforhodamine B assay; format: functional; conditions: RPMI-8226, 48 h, read-out: Activity
[31] = system: NCI-H460; assay: Growth inhibition of human NCI-H460 cells after 48 hrs by sulforhodamine B assay; format: functional; conditions: NCI-H460, 48 h
[32] = system: SK-OV-3; assay: Growth inhibition of human SKOV3 cells after 48 hrs by sulforhodamine B assay; format: functional; conditions: SK-OV-3, 48 h
[33] = system: OVCAR-8; assay: Growth inhibition of human OVCAR8 cells after 48 hrs by sulforhodamine B assay; format: functional; conditions: OVCAR-8, 48 h
[34] = system: HOP-92; assay: Growth inhibition of human HOP92 cells after 48 hrs by sulforhodamine B assay; format: functional, cell-based; conditions: HOP-92, 48 h
[35] = read-out: LC50 (the source's name)

O=C(Nc1cccc(-n2cc(-c3ccncc3)c(-c3ccc(Cl)c(O)c3)n2)c1)Nc1cccc(C(F)(F)F)c1 showed a growth at 10 µM [1] of 77.8%, a GI50 [2] of 4.69 µM and a TGI [2] greater than 32.5 µM. The CC50 [2, 35] was greater than 32.5 µM, the growth at 10 µM [3] was 0.81% and the GI50 [4] was 2.47 µM. For the same molecule, the TGI [4] was greater than 32.5 µM, the CC50 [4, 35] was greater than 32.5 µM and the growth at 10 µM [5] was -25.6%. For the same molecule, the growth at 10 µM [6] was -10.8%, the GI50 [7] was 7.9 µM and the LC50 (concentration killing 50% of cells) [7] was greater than 32.5 µM. The TGI [7] was 23.8 µM, the growth at 10 µM [8] was 14.6% and the GI50 [9] was 4.11 µM. For the same molecule, the LC50 [9] was greater than 32.5 µM, the TGI [9] was greater than 32.5 µM and the growth at 10 µM [10] was 10.6%. The GI50 [11] was 1.51 µM, the LC50 [11] was greater than 32.5 µM and the TGI [11] was greater than 32.5 µM. For the same molecule, the GI50 [12] was 3.54 µM, the LC50 (concentration killing 50% of cells) [12] was greater than 32.5 µM and the TGI [12] was 11.6 µM. It also gave a GI50 [13] of 2.53 µM, an LC50 [13] of 32.4 µM and a TGI [13] of 9.58 µM. The GI50 [14] was 6.86 µM, the TGI [14] was greater than 32.5 µM and the CC50 [14, 35] was greater than 32.5 µM. It also gave a GI50 [15] of 1.76 µM, an LC50 [15] greater than 32.5 µM and a TGI [15] greater than 32.5 µM. It also gave a growth at 10 µM [16] of 16.6%, a growth at 10 µM [17] of 2.46% and a GI50 [18] of 1.45 µM. It also gave a TGI [18] greater than 32.5 µM, a CC50 [18, 35] greater than 32.5 µM and a growth at 10 µM [19] of 4.28%. It also gave a GI50 [20] of 1.46 µM, an LC50 (concentration killing 50% of cells) [20] greater than 32.5 µM and a TGI [20] of 14.5 µM. The growth at 10 µM [21] was 24.8%, the GI50 [22] was 6.51 µM and the LC50 (50% lethal concentration) [22] was greater than 32.5 µM. For the same molecule, the TGI [22] was 21.4 µM, the growth at 10 µM [23] was 28.5% and the GI50 [24] was 1.44 µM. The TGI [24] was greater than 32.5 µM, the CC50 [24, 35] was greater than 32.5 µM and the growth at 10 µM [25] was 10.5%. It also gave a GI50 [26] of 1.75 µM, a TGI [26] greater than 32.5 µM and a CC50 [26, 35] greater than 32.5 µM. For the same molecule, the growth at 10 µM [27] was 12.5%, the growth at 10 µM [28] was 62.4% and the growth at 10 µM [29] was 18.2%. The growth at 10 µM [30] was 1.63%, the GI50 [31] was 1.18 µM and the LC50 [31] was greater than 32.5 µM. It also gave a TGI [31] of 29 µM, a GI50 [32] of 4.97 µM and a TGI [32] greater than 32.5 µM. The CC50 [32, 35] was greater than 32.5 µM, the GI50 [33] was 1.57 µM and the TGI [33] was greater than 32.5 µM. The CC50 [33, 35] was greater than 32.5 µM, the GI50 [34] was 0.509 µM and the pIC50 [34] was 6.29. For the same molecule, the LC50 [34] was greater than 32.5 µM and the TGI [34] was 2.23 µM.

Source: ChEMBL document CHEMBL2440076, “New triarylpyrazoles as broad-spectrum anticancer agents: design, synthesis, and biological evaluation” (Eur J Med Chem, 2013)
